Results from article PMC5074465, “Duloxetine Inhibits Microglial P2X4 Receptor Function and Alleviates Neuropathic Pain after Peripheral Nerve Injury” (PLoS ONE, 2016).

How the values were obtained:
rat P2X4R (rP2X4R) = molecular target: T1, rat P2X4R (rP2X4R) (Rattus norvegicus, UniProt P51577); experiment: Fura-2 Ca2+ assay (FDSS […]EX), inhibition of […] ATP response, […] duloxetine; assay type: cell-based
T1 construct: gene P2rx4; rP2X4R stably expressed in 1321N1 cells
T1 sequence (P51577 1-388): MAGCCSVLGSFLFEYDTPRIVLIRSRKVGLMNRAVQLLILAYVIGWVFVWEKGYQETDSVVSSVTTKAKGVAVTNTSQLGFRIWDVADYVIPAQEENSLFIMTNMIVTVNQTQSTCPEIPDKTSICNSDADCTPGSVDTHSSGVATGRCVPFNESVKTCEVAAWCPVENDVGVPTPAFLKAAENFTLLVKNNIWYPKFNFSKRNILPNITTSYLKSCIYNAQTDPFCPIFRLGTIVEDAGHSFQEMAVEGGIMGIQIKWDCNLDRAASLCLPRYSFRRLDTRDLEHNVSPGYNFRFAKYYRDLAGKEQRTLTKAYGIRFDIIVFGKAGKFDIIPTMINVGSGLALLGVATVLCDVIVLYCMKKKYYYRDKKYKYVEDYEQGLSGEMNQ

[1] = molecular target: T2, human P2X4R (P2X4 receptor) (Homo sapiens, UniProt Q99571); experiment: cell-based
T2 construct: gene P2RX4
T2 sequence (Q99571 1-388): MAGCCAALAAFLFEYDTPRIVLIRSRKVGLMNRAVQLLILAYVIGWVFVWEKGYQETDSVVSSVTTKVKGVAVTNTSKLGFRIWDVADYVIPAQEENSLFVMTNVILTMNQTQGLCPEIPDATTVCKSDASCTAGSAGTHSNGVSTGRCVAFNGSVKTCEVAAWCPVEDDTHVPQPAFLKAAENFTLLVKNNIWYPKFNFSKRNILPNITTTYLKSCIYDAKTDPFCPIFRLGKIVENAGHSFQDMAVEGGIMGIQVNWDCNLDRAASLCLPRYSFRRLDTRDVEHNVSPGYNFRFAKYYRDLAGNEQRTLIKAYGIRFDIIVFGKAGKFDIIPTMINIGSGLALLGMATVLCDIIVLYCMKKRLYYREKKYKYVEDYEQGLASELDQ

## CNCC[C@H](Oc1cccc2ccccc12)c1cccs1 [duloxetine]
Rat P2X4R (rP2X4R)
  Fura-2 Ca2+ assay (FDSS 7000EX), inhibition of 10 μM ATP response, 3-30 μM dulox: The inhibitory effect of duloxetine was concentration dependent in rP2X4R-1321N1 cells (Fig 1A).
[1]
  IC50: 1590 nM
